The values that follow are results of earlier work, collected in US5876694A, “Azavesamicols” (priority 1997, dated 1999).

In one data set the test system is vesicular ACh transport. The conditions noted are these: earlier studies; cited from earlier work.
In data set [1] the test system is vesamicol receptor. The following applies: cited from earlier work; for vesamicol receptor affinity (in words): earlier studies.
For data set [2], the system named is vesamicol receptor. The conditions noted are these: rodent brain, cited from earlier work.

Consider `O[C@@H]1Cc2ccccc2C[C@H]1N1CCC(c2ccccc2)CC1` (relative stereo) [Compound 2a], for which the “inhibition of vesicular ACh transport / activity (in words)” value in the data set on vesicular ACh transport is listed as “potent inhibitors of vesicular ACh transport”. Besides, in the data set with vesamicol receptor [1], the “vesamicol receptor affinity (in words)” value was “potent ligands”.

On to `Nc1cccc2c1C[C@@H](N1CCC(c3ccccc3)CC1)[C@H](O)C2` (relative stereo) [Compound 2b], for which the “inhibition of vesicular ACh transport / activity (in words)” value in the data set with vesicular ACh transport was “potent inhibitors of vesicular ACh transport”. Further, in the data set with vesamicol receptor [1], the “vesamicol receptor affinity (in words)” value is “potent ligands”.

Take `O[C@@H]1CCCC[C@H]1N1CCC(c2ccccc2)CC1` (relative stereo) [[^3 H]vesamicol]: the “cortical [^3 H]vesamicol binding after lesioning a known cholinergic pathway (in words)” value in the data set with vesamicol receptor [2] (lesion) is “significant decrease”. For the same compound, the “[^3 H]vesamicol distribution versus other cholinergic markers (in words)” value with vesamicol receptor [2] was “correlate well with other markers of cholinergic innervation”.

For `OCCN1CCC(c2ccccc2)CC1` [Compound 4a], the “inhibition of vesicular ACh transport / activity (in words)” value with vesicular ACh transport was “substantially diminished activity”.

On to `CCC(O)CN1CCC(c2ccccc2)CC1` (stereo not drawn) [Compound 4b], for which the “inhibition of vesicular ACh transport / activity (in words)” value in the data set with vesicular ACh transport is recorded as “substantially diminished activity”. Besides, the increase in activity in the data set with vesamicol receptor [1] (4b relative to 4a) was 30 fold.
